Measured values published in PubChem BioAssay AID2060604 (Molecular Pharmacology Branch, DTP, NCI, 2025).
Where “and” joins values, the source holds several entries; their conditions need not be identical. Identical values can stand only once.

Tested on: 379773-124-R-J2-PDC complex spheroids, viability % test/control
Experiment: Anticancer human tumor 379773-124-R-J2-PDC patient-derived endometrial carcinoma cell line growth inhibition [CLK]
Settings: for viability, T/C: stronger effect = lower value; active = viability on the fitted dose curve at most 10% of control; inactive = the rest
Outline: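 Patient-derived tumor cells grown as complex spheroids with HUVEC endothelial cells and mesenchymal stem cells, treated with drug combinations. Concentrations descend in half-log steps from near clinical Cmax, or from 10 microM if Cmax unknown.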

[1] = curve of first compound, second compound 0.0316 µM
[2] = curve of first compound, second compound 0.1 µM
[3] = curve of first compound, second compound 0.316 µM
[4] = curve of first compound, second compound 1 µM
[5] = curve of first compound, second compound 3.16 µM
[6] = curve of first compound, second compound 10 µM
[7] = second compound 0.0316 µM, first compound 0.0316 µM
[8] = second compound 0.0316 µM, first compound 0.1 µM
[9] = second compound 0.1 µM, first compound 0.0316 µM
[10] = second compound 0.1 µM, first compound 0.1 µM
[11] = second compound 0.316 µM, first compound 0.0316 µM
[12] = second compound 0.316 µM, first compound 0.1 µM
[13] = second compound 1 µM, first compound 0.0316 µM
[14] = second compound 1 µM, first compound 0.1 µM
[15] = second compound 3.16 µM, first compound 0.0316 µM
[16] = second compound 3.16 µM, first compound 0.1 µM
[17] = second compound 10 µM, first compound 0.0316 µM
[18] = second compound 10 µM, first compound 0.1 µM
[19] = second compound 0.0316 µM, first compound 0.316 µM
[20] = second compound 0.0316 µM, first compound 1 µM
[21] = second compound 0.0316 µM, first compound 3.16 µM
[22] = second compound 0.0316 µM, first compound 10 µM
[23] = second compound 0.1 µM, first compound 0.316 µM
[24] = second compound 0.1 µM, first compound 1 µM
[25] = second compound 0.1 µM, first compound 3.16 µM
[26] = second compound 0.1 µM, first compound 10 µM
[27] = second compound 0.316 µM, first compound 0.316 µM
[28] = second compound 0.316 µM, first compound 1 µM
[29] = second compound 0.316 µM, first compound 3.16 µM
[30] = second compound 0.316 µM, first compound 10 µM
[31] = second compound 1 µM, first compound 0.316 µM
[32] = second compound 1 µM, first compound 1 µM
[33] = second compound 1 µM, first compound 3.16 µM
[34] = second compound 1 µM, first compound 10 µM
[35] = second compound 3.16 µM, first compound 0.316 µM
[36] = second compound 3.16 µM, first compound 1 µM
[37] = second compound 3.16 µM, first compound 3.16 µM
[38] = second compound 3.16 µM, first compound 10 µM
[39] = second compound 10 µM, first compound 0.316 µM
[40] = second compound 10 µM, first compound 1 µM
[41] = second compound 10 µM, first compound 3.16 µM
[42] = second compound 10 µM, first compound 10 µM
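Also: compound exposure lasted seven days before the viability readout.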
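For viability, T/C in this document: 100% = DMSO vehicle control wells.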

Cn1ncnc1[C@H]1c2n[nH]c(=O)c3cc(F)cc(c23)N[C@@H]1c1ccc(F)cc1 + CN1CCN(c2cc(C(=O)Nc3cc4cc(-c5cnn(C)c5)ccc4cn3)ccn2)CC1
0.0426 µM: IC50 [1]
0.0222 µM: IC50 [2]
< 0.000316 µM: IC50 [3] | IC50 [4] | IC50 [5] | IC50 [6]
inactive: viability, T/C (second compound 0.0316 µM, first compound 0.000316 µM) 87.8% | viability, T/C (second compound 0.0316 µM, first compound 0.001 µM) 96.2% | viability, T/C (second compound 0.0316 µM, first compound 0.00316 µM) 80.3% | viability, T/C (second compound 0.0316 µM, first compound 0.01 µM) 92.6% | viability, T/C [7] 55.6% | viability, T/C [8] 34% | viability, T/C (second compound 0.1 µM, first compound 0.000316 µM) 87% | viability, T/C (second compound 0.1 µM, first compound 0.001 µM) 82.6% | viability, T/C (second compound 0.1 µM, first compound 0.00316 µM) 79.1% | viability, T/C (second compound 0.1 µM, first compound 0.01 µM) 64.1% | viability, T/C [9] 43.6% | viability, T/C [10] 27% | viability, T/C (second compound 0.316 µM, first compound 0.000316 µM) 24.1% | viability, T/C (second compound 0.316 µM, first compound 0.001 µM) 29.2% | viability, T/C (second compound 0.316 µM, first compound 0.00316 µM) 17.9% | viability, T/C (second compound 0.316 µM, first compound 0.01 µM) 21.4% | viability, T/C [11] 15.2% | viability, T/C [12] 12.3%
active: viability, T/C (second compound 1 µM, first compound 0.000316 µM) 0.11% | viability, T/C (second compound 1 µM, first compound 0.001 µM) 0.8% | viability, T/C (second compound 1 µM, first compound 0.00316 µM) 0.33% | viability, T/C (second compound 1 µM, first compound 0.01 µM) 0.19% | viability, T/C [13] 0.06% | viability, T/C [14] 0.07% | viability, T/C (second compound 3.16 µM, first compound 0.000316 µM) 1.37% | viability, T/C (second compound 3.16 µM, first compound 0.001 µM) 0.24% | viability, T/C (second compound 3.16 µM, first compound 0.00316 µM) 0.23% | viability, T/C (second compound 3.16 µM, first compound 0.01 µM) 0.07% | viability, T/C [15] 1.63% | viability, T/C [16] 0.08% | viability, T/C (second compound 10 µM, first compound 0.000316 µM) 1.25% | viability, T/C (second compound 10 µM, first compound 0.001 µM) 0.1% | viability, T/C (second compound 10 µM, first compound 0.00316 µM) 0.49% | viability, T/C (second compound 10 µM, first compound 0.01 µM) 0.52% | viability, T/C [17] 0.29% | viability, T/C [18] 0.13%

O=C(c1cc(Cc2n[nH]c(=O)c3ccccc23)ccc1F)N1CCN(C(=O)C2CC2)CC1 + CNC(=O)c1ccc(Nc2nc(OC3CCCC3)c3c(-c4ccc5nc(C)oc5c4)c[nH]c3n2)c(OC)c1
5.6 µM: IC50 [1]
inactive: viability, T/C [7] 76.2% | viability, T/C [8] 75.1% | viability, T/C [19] 67.7% | viability, T/C [20] 75.4% | viability, T/C [21] 69.9% | viability, T/C [22] 29.6% | viability, T/C [9] 41.1% | viability, T/C [10] 41.7% | viability, T/C [23] 37.8% | viability, T/C [24] 31.9% | viability, T/C [25] 36.3% | viability, T/C [26] 15.3% | viability, T/C [11] 51.7% | viability, T/C [12] 42.3% | viability, T/C [27] 35.5% | viability, T/C [28] 33.7% | viability, T/C [29] 33% | viability, T/C [30] 13.7% | viability, T/C [13] 39.9% | viability, T/C [14] 32.2% | viability, T/C [31] 29.8% | viability, T/C [32] 33.3% | viability, T/C [33] 23.2% | viability, T/C [34] 10.2% | viability, T/C [15] 32.8% | viability, T/C [16] 34.1% | viability, T/C [35] 26.3% | viability, T/C [36] 33.5% | viability, T/C [37] 31% | viability, T/C [38] 8.47% | viability, T/C [17] 29.5% | viability, T/C [18] 29.9% | viability, T/C [39] 24.8% | viability, T/C [40] 23.9% | viability, T/C [41] 23.2% | viability, T/C [42] 6.48%
< 0.0316 µM: IC50 [2] | IC50 [3] | IC50 [4] | IC50 [5] | IC50 [6]

CCCS(=O)(=O)Nc1ccc(F)c(C(=O)c2c[nH]c3ncc(-c4ccc(Cl)cc4)cc23)c1F + CN1CCN(c2cc(C(=O)Nc3cc4cc(-c5cnn(C)c5)ccc4cn3)ccn2)CC1
> 10 µM: IC50 [1] | IC50 [2]
inactive: viability, T/C [7] 80.5% | viability, T/C [8] 86.1% | viability, T/C [19] 94.8% | viability, T/C [20] 90.1% | viability, T/C [21] 82.4% | viability, T/C [22] 58.7% | viability, T/C [9] 83.6% | viability, T/C [10] 65.8% | viability, T/C [23] 75.8% | viability, T/C [24] 70.2% | viability, T/C [25] 68.9% | viability, T/C [26] 54.8% | viability, T/C [11] 26.6% | viability, T/C [12] 27.3% | viability, T/C [27] 30.2% | viability, T/C [28] 27.2% | viability, T/C [29] 29.8% | viability, T/C [30] 18.3%
< 0.0316 µM: IC50 [3] | IC50 [4] | IC50 [5] | IC50 [6]
active: viability, T/C [13] 0.16% | viability, T/C [14] 0.29% | viability, T/C [31] 0.14% | viability, T/C [32] 0.13% | viability, T/C [33] 1.03% | viability, T/C [34] 0.09% | viability, T/C [15] 0.1% | viability, T/C [16] 0.48% | viability, T/C [35] 0.12% | viability, T/C [36] 0.91% | viability, T/C [37] 0.09% | viability, T/C [38] 0.51% | viability, T/C [17] 0.14% | viability, T/C [18] 1.01% | viability, T/C [39] 0.7% | viability, T/C [40] 2.8% | viability, T/C [41] 0.19% | viability, T/C [42] 0.29%

C=CC(=O)N1CCN(c2nc(=O)n(-c3c(C)ccnc3C(C)C)c3nc(-c4c(O)cccc4F)c(F)cc23)C(C)C1 (stereo not given)
> 10 µM: IC50 (curve of compound)
inactive: viability, T/C (compound 0.0316 µM) 93.1% and 85.7% | viability, T/C (compound 0.1 µM) 82.4% and 92.2% | viability, T/C (compound 0.316 µM) 88.2% and 84.4% | viability, T/C (compound 1 µM) 107% and 91.6% | viability, T/C (compound 3.16 µM) 95.7% and 98.6% | viability, T/C (compound 10 µM) 92.6% and 94.5%

CC(Nc1ccc2c(c1)OCCn1cc(N3C(=O)OCC3C(F)F)nc1-2)C(N)=O (stereo not given)
inactive: viability, T/C (compound 0.0316 µM) 84.9% and 92.7% | viability, T/C (compound 0.1 µM) 93.1% and 85.8% | viability, T/C (compound 0.316 µM) 93.5% and 79.4% | viability, T/C (compound 1 µM) 79% and 87.4% | viability, T/C (compound 3.16 µM) 77.1% and 78.5% | viability, T/C (compound 10 µM) 69.1% and 67.6%
> 10 µM: IC50 (curve of compound)
